Results from US20260216294A1, “BETA 2-ADRENERGIC RECEPTOR AGONISTS FOR TREATMENT OR PREVENTION OF MUSCLE WASTING” (ATROGI AB, priority 2023, published 2026).

What was measured:
[1] = tested on: L6-myotubes; assay: Glucose uptake in differentiated L6-myotubes (Biological Example 2); format: cell-based; conditions: read-out: Biological example 2 (GU)
Summary of the method: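 Differentiated L6 myotubes were serum-starved overnight in 0.5% fatty-acid-free BSA and then stimulated with compound or isoprenaline at 1×10^−5 M final. After 1 h 40 min cells were washed and re-dosed in glucose-free medium. Twenty minutes later, uptake of 50 nM ^3H-2-deoxyglucose over 10 min was measured by scintillation counting of NaOH lysates.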

[2] = tested on: L6-myotubes; assay: Measurement of intracellular cAMP levels in differentiated L6-myotubes (Biological Example 3); format: cell-based; conditions: 0.25 h
Summary of the method: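 Serum-starved differentiated L6 myotubes stimulated 15 min with test compound at 1×10^−5 M final (isoprenaline as reference) in HBSS with 1% BSA, 5 mM HEPES, 1 mM IBMX, pH 7.4. Cells EtOH-extracted, lysed, and intracellular cAMP measured by AlphaScreen.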

[3] = glucose uptake in differentiated L6-myotubes, compound at 10 μM, activity relative to isoproterenol at 10 μM
[4] = intracellular cAMP in differentiated L6-myotubes, compound at 10 μM, activity relative to isoproterenol at 10 μM
[5] = glucose uptake, compound at 10 μM relative to isoproterenol at 10 μM
[6] = intracellular cAMP, compound at 10 μM relative to isoproterenol at 10 μM

| Compound | Emax at 10 µM [1, 3] | Emax at 10 µM [2, 4] | Emax at 10 µM [1, 5] | Emax at 10 µM [2, 6] |
| --- | --- | --- | --- | --- |
| CC(C)(NC[C@H](O)c1cncc(F)c1)[C@H]1CC[C@H](O)CC1 [Compound 285, (R)-1-(5-fluoro-3-pyridyl)-2-{1-methyl-1-[(1r,4R)-4-hydroxycyclohexyl]ethylamino}-1-ethanol] | 50 to 75% | < 25% | – | – |
| Oc1ccc(C(O)CNC2CCCC2)cc1 (centres unmarked) [Compound 10, p-[2-(cyclopentylamino)-1-hydroxyethyl]phenol] | – | – | 50 to 75% | < 25% |
| CCC[C@@H]1CCC[C@@H]([C@H](O)c2cccc(F)c2)N1 [Compound 116] | – | – | 25 to 50% | < 25% |
| CC(C)(C[C@H]1CC[C@H](O)CC1)NC[C@H](O)c1cncc(F)c1 [Compound 299, (R)-2-{1,1-dimethyl-2-[(1r,4R)-4-hydroxycyclohexyl]ethylamino}-1-(5-fluoro-3-pyridyl)-1-ethanol] | 50 to 75% | < 25% | – | – |
| CCCCNCC(O)c1ccc(O)c(Cl)c1 (centres unmarked) [Compound 20, 2-(butylamino)-1-(3-chloro-4-hydroxyphenyl)-1-ethanol] | – | – | 25 to 50% | < 25% |
| CC(=O)N[C@H]1CC[C@@H](CC(C)(C)NC[C@H](O)c2cccnc2C)CC1 [Compound 436] | 50 to 75% | < 25% | – | – |
| CCCCNCC(O)c1cc(O)cc(O)c1 (centres unmarked) [Compound 26, 5-[2-(butylamino)-1-hydroxyethyl]resorcinol] | – | – | 50 to 75% | < 25% |
| CCC[C@H]1CC[C@H]([C@H](O)c2cccc(F)c2)N1 [Compound 124, (R)-[(2R,5S)-5-propyl-2-pyrrolidinyl](m-fluorophenyl)methanol] | – | – | 50 to 75% | < 25% |
| CCC[C@H]1CCC[C@H]([C@H](O)c2ccccc2Cl)N1 [Compound 135, (R)-[(2R,6S)-6-propyl-2-piperidyl](o-chlorophenyl)methanol] | – | – | 25 to 50% | < 25% |
| CCCCNC[C@H](O)c1cccc(N)c1F [Compound 90, (R)-1-(3-amino-2-fluorophenyl)-2-(butylamino)-1-ethanol] | – | – | 50 to 75% | < 25% |
| CC1(C)CCC[C@H]([C@@H](O)c2ccccc2F)N1 [Compound 176, (S)-[(R)-6,6-dimethyl-2-piperidyl](o-fluorophenyl)methanol] | – | – | > 75% | 25 to 50% |
| COC(=O)[C@H]1CC[C@H](CC(C)(C)NC[C@H](O)c2cccc(F)c2)CC1 [Compound 353, methyl (1R,4r)-4-{2-[(R)-2-(m-fluorophenyl)-2-hydroxyethylamino]-2-methylpropyl} cyclohexanecarboxylate] | > 75% | < 25% | – | – |
| CC(C)(NC[C@H](O)c1cccc(F)c1)[C@H]1CC[C@@H](C(=O)O)CC1 [Compound 369] | 50 to 75% | < 25% | – | – |
| CC12CCC([C@H](O)c3ccccc3Cl)(CC1)N2 [Compound 195, (R)-(o-chlorophenyl)(4-methyl-7-azabicyclo[[2.2.1]]hept-1-yl)methanol] | – | – | > 75% | < 25% |
| CCC[C@@H](C)NC[C@H](O)c1ccc(F)cc1 [Compound 52, (R)-2-[(R)-1-methylbutylamino]-1-(p-fluorophenyl)-1-ethanol] | – | – | 50 to 75% | < 25% |
| CC12CC(C1)[C@@H]([C@H](O)c1cccc(F)c1)N2 [Compound 188, (R)-{(S)-1-methyl-2-azabicyclo[[2.1.1]]hex-3-yl}(m-fluorophenyl)methanol] | – | – | < 25% | < 25% |

| Compound | Emax at 10 µM [1, 3] | Emax at 10 µM [2, 4] | Emax at 10 µM [1, 5] | Emax at 10 µM [2, 6] |
| --- | --- | --- | --- | --- |
| CC(=O)N(Cc1ccccc1)[C@H]1CC[C@@H](C[C@@H]2CC[C@H]([C@H](O)c3cccc(F)c3)N2)CC1 [Compound 480, N-[(1R,4s)-4-({(2S,5R)-5-[(R)-(m-fluorophenyl) hydroxymethyl]-2-pyrrolidinyl}methyl)cyclohexyl]-N-benzylacetamide] | < 25% | < 25% | – | – |
| CC1(C)CC[C@H]([C@H](O)c2cncc(O)c2)N1 [Compound 167, 5-{(R)-[(R)-5,5-dimethyl-2-pyrrolidinyl] hydroxymethyl}-3-pyridinol] | – | – | 50 to 75% | < 25% |
| CS(=O)(=O)N(Cc1ccccc1)c1cccc(CC23CCC([C@H](O)c4cccc(F)c4)(CC2)N3)c1 [Compound 513] | 25 to 50% | < 25% | – | – |
| CS(=O)(=O)N[C@H]1CC[C@H](C[C@@H]2CC[C@H]([C@@H](O)c3cccc(F)c3)N2)CC1 [Compound 505, (S)-[(2R,5S)-5-{[(1r,4S)-4-(mesylamino)cyclohexyl]methyl}-2-pyrrolidinyl](m-fluorophenyl)methanol] | < 25% | < 25% | – | – |
| O[C@H](c1cccc(F)c1)[C@H]1CCC2(CC2)N1 [Compound 170, (R)-{(R)-4-aza-5-spiro[2.4]heptyl}(m-fluorophenyl)methanol] | – | – | 50 to 75% | < 25% |
| CCC[C@H]1CCCC[C@@H]([C@H](O)c2cncc(F)c2)N1 [Compound 234, (R)-[(2S,7S)-7-propyl-2-azepanyl](5-fluoro-3-pyridyl)methanol] | > 75% | < 25% | – | – |
| CC(C)(CC[C@H]1CC[C@@H](O)CC1)NC[C@H](O)c1cncc(F)c1 [Compound 296, (R)-2-{1,1-dimethyl-3-[(1s,4R)-4-hydroxycyclohexyl]propylamino}-1-(5-fluoro-3-pyridyl)-1-ethanol] | > 75% | < 25% | – | – |
| O[C@@H](CNC[C@H]1CC[C@@H](OCc2ccccc2)CC1)c1cccc(F)c1 [Compound 262, (R)-1-(m-fluorophenyl)-2-({[(1s,4S)-4-(benzyloxy)cyclohexyl]methyl}amino)-1-ethanol] | 25 to 50% | < 25% | – | – |
| O[C@H](c1cccc(F)c1)C12CCC(COCc3ccc(Cl)cc3)(CC1)N2 [Compound 396, (R)-(4-{[(p-chlorophenyl)methoxy]methyl}-7-azabicyclo[[2.2.1]]hept-1-yl)(m-fluorophenyl)methanol] | > 75% | < 25% | – | – |
| CCCCNCC(O)c1cc(Cl)c(N)c(Cl)c1 (centres unmarked) [Compound 29, 1-(4-amino-3,5-dichlorophenyl)-2-(butylamino)-1-ethanol] | – | – | > 75% | 25 to 50% |
| CC(C)(CC[C@H]1CC[C@H](NS(C)(=O)=O)CC1)NC[C@H](O)c1cncc(F)c1 [Compound 362, (R)-2-{1,1-dimethyl-3-[(1r,4R)-4-(mesylamino)cyclohexyl]propylamino}-1-(5-fluoro-3-pyridyl)-1-ethanol] | 50 to 75% | < 25% | – | – |
| CO[C@H]1CC[C@H](C[C@@H]2CC[C@H]([C@@H](O)c3cncc(F)c3)N2)CC1 [Compound 332] | 25 to 50% | < 25% | – | – |
| CC(C)(C[C@H]1CC[C@H](N)CC1)NC[C@H](O)c1cccc(C#N)n1 [Compound 417] | > 75% | 25 to 50% | – | – |
| CCC[C@H]1CCC[C@H]([C@H](O)c2cc(F)cc(F)c2)N1 [Compound 68] | – | – | 50 to 75% | < 25% |
| CC(=O)N[C@H]1CC[C@@H](CC(C)(C)NC[C@H](O)c2cccc(F)c2)CC1 [Compound 452] | > 75% | < 25% | – | – |
